# Test results published in US20050187221A1, “Method of treating ischemia reperfusion injury” (Japan Tobacco Inc., priority 2003, published 2005).
# Structures can show the parent of a compound that is named as a salt.
# Assays:
# [1] = test system: IL-1β; experiment: Tissue level of IL-1β in the myocardium after reperfusion (ELISA); format: ex vivo (isolated Langendorff-perfused heart after in vivo dosing), Sprague-Dawley rats; details: 10 mg/kg intraperitoneally; after 60 min reperfusion; mean±SEM; C group 3700±700, not statistically significantly different
# Method: (§1) Sixteen Sprague-Dawley rats (300 g, male) were divided into a control group (“C group,” n=8) and a group administered (−)-ethyl N-{3,5-dichloro-2-hydroxy-4-[2-(4-methylpiperazin-1-yl)ethoxy]benzoyl}-L-phenylalaninate dihydrochloride (“J group,” n=8). All rats were anesthesized by intraperitoneal injection of sodium pentobarbital (50 mg/kg), and either (a) 0.5 mL of saline (C group) or (b) 10 mg/kg of (−)-ethyl N-{3,5-dichloro-2-hydroxy-4-[2-(4-methylpiperazin-1-yl)ethoxy]benzoyl}-L-phenylalaninate dihydrochloride dissolved in 5% mannitol (J group) was administered intraperitoneally to the rats. Anticoagulation was ensured by the intraperitoneal administration of 200 USP units of heparin. […]
# (§2) After stabilization, heart rate (HR), left ventricular developed pressure (LVDP), maximum dP/dt (maximum dP/dt), and coronary flow (CF) were measured with LV diastolic pressure stabilized at 10 mm Hg. […] HR, LVDP, maximum dP/dt, and CF were continuously measured after reperfusion and analyzed using a Polygraph System (Nihon Kouden, Japan).
# (§3) After 60 minutes of reperfusion, frozen sections of the hearts were made and stored at −80° C. for further assessment. […] The concentrations of tissue inflammatory cytokines were measured using ELISA kits (TNF-α, IL-1β, and IL-6: Biosource International, California; and IL-8: Immuno-Biological Laboratories, Gunma, Japan) according to the manufacturer's recommendation. […]
# [2] = test system: IL-6; experiment: Tissue level of IL-6 in the myocardium after reperfusion (ELISA); format: ex vivo (isolated Langendorff-perfused heart, dosed in vivo), Sprague-Dawley rats; details: 10 mg/kg intraperitoneally; after 60 min reperfusion; mean±SEM; C group 300±80, p<0.05
# Method: as §1, §2, §3
# [3] = test system: IL-8; experiment: Tissue level of IL-8 in the myocardium after reperfusion (ELISA); format: ex vivo (isolated Langendorff-perfused heart), Sprague-Dawley rats; details: 10 mg/kg intraperitoneally; after 60 min reperfusion; mean±SEM; C group 240±40, p<0.05
# Method: as §1, §2, §3
# [4] = test system: TNF-α; experiment: Tissue level of TNF-α in the myocardium after reperfusion (ELISA); parameters: species or system Sprague-Dawley rats; details: 10 mg/kg intraperitoneally; after 60 min reperfusion; mean±SEM; C group 550±80, p<0.05
# Method: as §1, §2, §3
# [5] = test system: cardiac myocytes (CPK leakage); experiment: Creatine phosphokinase (CPK) leakage into the coronary effluent after reperfusion; format: ex vivo (isolated perfused hearts from dosed rats), Sprague-Dawley rats; details: 10 mg/kg intraperitoneally; coronary effluent for 60 minutes after reperfusion; mean±SEM; C group 140±61, p<0.05
# Method: as §1
# as §2, with “Japan). […]” for “Japan).”
# There were significant differences between the two groups, however, following global ischemia and reperfusion. FIGS. 1 and 2 depict the cardiac function (as measured by LVDP and maximum dP/dt) after ischemia reperfusion between the C and J groups. For the following parameters, data are expressed as mean±standard error of the mean (SEM). […]
# [6] = test system: hearts of Sprague-Dawley rats (myocardial ischemia reperfusion injury); experiment: Cardiac function of isolated Langendorff-perfused rat hearts after 30 min global ischemia and 60 min reperfusion; format: ex vivo
# Method: Sixteen Sprague-Dawley rats (300 g, male) were divided into a control group (“C group,” n=8) and a group administered (−)-ethyl N-{3,5-dichloro-2-hydroxy-4-[2-(4-methylpiperazin-1-yl)ethoxy]benzoyl}-L-phenylalaninate dihydrochloride (“J group,” n=8). All rats were anesthesized by intraperitoneal injection of sodium pentobarbital (50 mg/kg), and either (a) 0.5 mL of saline (C group) or (b) 10 mg/kg of (−)-ethyl N-{3,5-dichloro-2-hydroxy-4-[2-(4-methylpiperazin-1-yl)ethoxy]benzoyl}-L-phenylalaninate dihydrochloride dissolved in 5% mannitol (J group) was administered intraperitoneally to the rats. Anticoagulation was ensured by the intraperitoneal administration of 200 USP units of heparin.
# Ten minutes after the administration of heparin and either (a) saline (C group) or (b) 10 mg/kg of (−)-ethyl N-{3,5-dichloro-2-hydroxy-4-[2-(4-methylpiperazin-1-yl)ethoxy]benzoyl}-L-phenylalaninate dihydrochloride dissolved in 5% mannitol (J group), the hearts of the rats were excised and perfused with modified Krebs-Henseleit buffer (120.0 mM NaCl, 4.5 mM KCl, 20.0 mM NaHCO3, 1.2 mM KH2PO4, 1.2 MgCl2, 2.5 mM CaCl2, and 10.0 mM glucose: gassed with 95% O2+5% CO2 to obtain a pH of 7.4 at 37° C.) at the pressure equal to 1 m H2O by means of a Langendorff apparatus. A thin-wall latex balloon was inserted into the left ventricle through the left atrium to monitor left ventricular pressure and to control left ventricular volume.
# After stabilization, heart rate (HR), left ventricular developed pressure (LVDP), maximum dP/dt (maximum dP/dt), and coronary flow (CF) were measured with LV diastolic pressure stabilized at 10 mm Hg. The hearts were subjected to global ischemia at 37° C. for 30 minutes, followed by 60 minutes of reperfusion. The balloon was deflated during ischemia, and the hearts were not paced during reperfusion. HR, LVDP, maximum dP/dt, and CF were continuously measured after reperfusion and analyzed using a Polygraph System (Nihon Kouden, Japan).
# There were significant differences between the two groups, however, following global ischemia and reperfusion. FIGS. 1 and 2 depict the cardiac function (as measured by LVDP and maximum dP/dt) after ischemia reperfusion between the C and J groups. For the following parameters, data are expressed as mean±standard error of the mean (SEM). The difference in the data on functional recoveries were determined with one-way repeated measure ANOVA. The difference in the data on CPK leakage and tissue cytokine concentrations were determined with unpaired Student's t test. A p value of less than 0.05 was considered statistically significant.
structure (smiles),measurement,setting,value
"CCOC(=O)[C@H](Cc1ccccc1)NC(=O)c1cc(Cl)c(OCCN2CCN(C)CC2)c(Cl)c1O [(−)-ethyl N-{3,5-dichloro-2-hydroxy-4-[2-(4-methylpiperazin-1-yl)ethoxy]benzoyl}-L-phenylalaninate dihydrochloride]",tissue level of IL-1β in the myocardium after reperfusion,[1],2600±200 pg/mg tissue
same,tissue level of IL-6 in the myocardium after reperfusion,[2],60±7 pg/mg tissue
same,tissue level of IL-8 in the myocardium after reperfusion,[3],68±19 pg/mg tissue
same,tissue level of TNF-α in the myocardium after reperfusion,[4],240±30 pg/mg tissue
same,CPK leakage of the coronary effluent,[5],2.9±2.0 IU/60 minutes
same,peak value of percent recovery of LVDP after reperfusion,"[6]; 10 mg/kg intraperitoneally 10 min before heart excision, 30 min global ischemia at 37° C., 60 min reperfusion, percentage of basal LVDP, mean±SEM, C group 39±6%, p<0.05",79±5%
same,peak value of percent recovery of maximum dP/dt after reperfusion,"[6]; 10 mg/kg intraperitoneally 10 min before heart excision, 30 min global ischemia, 60 min reperfusion, percentage of basal maximum dP/dt, mean±SEM, C group 54±7%, p<0.05",80±4%
same,percent recovery of LVDP versus C group over time,"[6]; 10 mg/kg intraperitoneally, at 20, 30, 40, 50, and 60 minutes after reperfusion",Significant improvements
same,percent recovery of max dP/dt versus C group over time,"[6]; 10 mg/kg intraperitoneally, at 30, 40, 50, and 60 minutes after reperfusion",significant improvement
